Experiment [1] relates to Cabbage Looper (Trichoplusia ni, TRIPNI). The experiment in a line: Bioassays on Cabbage Looper (CL), 128-well diet tray assay. The class given is in vivo. To be noted: Trichoplusia ni. In outline:
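Second-instar larvae (1–5 per well) placed on artificial diet surface-treated with 50 μg/cm^2 test molecule applied in 90:10 acetone-water and dried. Held at 25° C., 14:10 light-dark, for five to seven days. Percent mortality scored per well and averaged over eight wells.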

Experiment [2] relates to Beet Armyworm (Spodoptera exigua, LAPHEG). Nature of the experiment: Bioassays on Beet Armyworm (BAW), 128-well diet tray assay. The experiment is classed as in vivo. To be noted: Spodoptera exigua. In outline:
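Eight diet wells per compound were treated at 50 μg/cm^2 (acetone-water 90:10), dried, then infested with 1–5 second-instar larvae each. After five to seven days at 25 °C under 14:10 photoperiod, mortality was scored and averaged across wells.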

The mark [3] stands for this setting: Table ABC: Biological Results, species CL, read-out: CL.
Where [4] appears, read: Table ABC: Biological Results, species BAW, read-out: BAW.
Where [5] appears, read: Cabbage Looper, Table ABC / ABC-DP rating, read-out: CL rating.
Where [6] appears, read: Beet Armyworm, Table ABC / ABC-DP rating, read-out: BAW rating.
Setting [7] is: Cabbage Looper, rating class, read-out: CL.
[8] abbreviates: Beet Armyworm, rating class, read-out: BAW.

Like-named read-outs stand apart in the source and are kept apart here.

`Nc1c(Cl)cc(NC(=O)c2cc(NC(=O)[C@H]3[C@H](c4ccc(F)c(Cl)c4)C3(Cl)Cl)ccc2Cl)cc1Cl` (relative stereo) [F1367, trans-N-(4-Amino-3,5-dichlorophenyl)-2-chloro-5-(2,2-dichloro-3-(3-chloro-4-fluorophenyl)cyclopropane-1-carboxamido)benzamide]: the pest or weed control at 50 µg/cm2 in experiment [1] (setting [3]) and in experiment [2] (setting [4]) was 50 to 100% throughout.

`CC(=O)C1(C(=O)Nc2c(F)ccc(NC(=O)c3cc(NC(=O)[C@H]4[C@H](c5ccc(F)c(C(F)(F)F)c5)C4(Cl)Cl)ccc3Cl)c2F)CC1` [F1850, N-(3-(1-Acetylcyclopropane-1-carboxamido)-2,4-difluorophenyl)-2-chloro-5-((1R,3R)-2,2-dichloro-3-(4-fluoro-3-(trifluoromethyl)phenyl)cyclopropane-1-carboxamido)benzamide]: the pest or weed control at 50 µg/cm2 in experiment [1] (setting [5]) and in experiment [2] (setting [6]) was 50 to 100% throughout.

For the compound `O=C(Nc1c(F)ccc(NC(=O)C(F)(F)F)c1F)c1cc(NC(=O)[C@H]2[C@H](c3cc(Cl)c(Cl)c(Cl)c3)C2(Cl)Cl)ccc1Cl` [F1516, 2-Chloro-5-((1R,3R)-2,2-dichloro-3-(3,4,5-trichlorophenyl)cyclopropane-1-carboxamido)-N-(2,6-difluoro-3-(2,2,2-trifluoroacetamido)phenyl)benzamide], the pest or weed control at 50 µg/cm2 in experiment [1] (setting [7]) and in experiment [2] (setting [8]) was 50 to 100% in each case.

With `CNc1c(F)ccc(NC(=O)c2cc(NC(=O)[C@H]3[C@H](c4ccc(Cl)c(Cl)c4)C3(Cl)Cl)ccc2Cl)c1F` [F1550, 2-Chloro-5-((1R,3R)-2,2-dichloro-3-(3,4-dichlorophenyl)cyclopropane-1-carboxamido)-N-(2,4-difluoro-3-(methylamino)phenyl)benzamide], the pest or weed control at 50 µg/cm2 in experiment [1] (setting [7]) and in experiment [2] (setting [8]) was 50 to 100% each time.

Regarding `O=C(Nc1cc(NC(=O)C(F)(F)F)c(F)cc1F)c1cc(NC(=O)[C@H]2[C@H](c3ccc(F)c(C(F)(F)F)c3)C2(Cl)Cl)ccc1Cl` [F1541, 2-Chloro-5-((1R,3R)-2,2-dichloro-3-(4-fluoro-3-(trifluoromethyl)phenyl)cyclopropane-1-carboxamido)-N-(2,4-difluoro-5-(2,2,2-trifluoroacetamido)phenyl)benzamide], the pest or weed control at 50 µg/cm2 in experiment [1] (setting [7]) and in experiment [2] (setting [8]) was 50 to 100% in each case.

With `Cc1cc(F)c(NC(=O)c2cc(NC(=O)[C@H]3[C@H](c4ccc(F)c(Cl)c4)C3(Cl)Cl)ccc2Cl)cc1[N+](=O)[O-]` [F1082, 2-Chloro-5-((1R,3R)-2,2-dichloro-3-(3-chloro-4-fluorophenyl)cyclopropane-1-carboxamido)-N-(2-fluoro-4-methyl-5-nitrophenyl)benzamide], the pest or weed control at 50 µg/cm2 in experiment [1] (setting [3]) and in experiment [2] (setting [4]) was 50 to 100% throughout.

Regarding `Nc1c(F)cc(NC(=O)c2cc(NC(=O)[C@H]3[C@H](c4ccc(Cl)c(Cl)c4)C3(Cl)Cl)ccc2Cl)cc1F` (relative stereo) [DP3, trans-N-(4-Amino-3,5-difluorophenyl)-2-chloro-5-(2,2-dichloro-3-(3,4-dichlorophenyl)cyclopropane-1-carboxamido)benzamide], the mortality – broadly, the share of the test organisms that died – at 50 µg/cm2 in experiment [1] (168 h, second instar larvae, 50 μg/cm^2 of test molecule on artificial diet, 25° C., five to seven days, average of eight wells, read-out: CL % Control (or Mortality) rating) was in the range of 50 to 100%; in experiment [2] (168 h, second instar larvae, 50 μg/cm^2 of test molecule on artificial diet, 25° C., five to seven days, average of eight wells, read-out: BAW % Control (or Mortality) rating) it was 50 to 100%. For the same compound, the pest or weed control at 50 µg/cm2 in experiment [1] (setting [5]) and in experiment [2] (setting [6]) was 50 to 100% throughout.

Consider `O=C(NNc1ccccc1)c1cc(NC(=O)[C@H]2[C@H](c3cc(Cl)cc(Cl)c3)C2(Cl)Cl)ccc1Cl` (relative stereo) [F2556, trans-2,2-Dichloro-N-(4-chloro-3-(2-phenylhydrazine-1-carbonyl)phenyl)-3-(3,5-dichlorophenyl)cyclopropane-1-carboxamide], for which the pest or weed control at 50 µg/cm2 in experiment [1] (setting [5]) and in experiment [2] (setting [6]) was 50 to 100% each time.

On to `O=C(Nc1cc(NC(=O)C(F)(F)F)c(F)cc1F)c1cc(NC(=O)[C@H]2[C@H](c3ccc(F)c(Cl)c3)C2(Cl)Cl)cc(F)c1Cl` [F1401, 2-Chloro-5-((1R,3R)-2,2-dichloro-3-(3-chloro-4-fluorophenyl)cyclopropane-1-carboxamido)-N-(2,4-difluoro-5-(2,2,2-trifluoroacetamido)phenyl)-3-fluorobenzamide], for which the pest or weed control at 50 µg/cm2 in experiment [1] (setting [7]) and in experiment [2] (setting [8]) was 50 to 100% each time.

Take `O=C(Nc1cc(NC(=O)C(F)F)c(F)cc1F)c1cc(NC(=O)[C@H]2[C@H](c3ccc(F)c(C(F)(F)F)c3)C2(Cl)Cl)cc(F)c1Cl` [F1406, 2-Chloro-5-((1R,3R)-2,2-dichloro-3-(4-fluoro-3-(trifluoromethyl)phenyl)cyclopropane-1-carboxamido)-N-(5-(2,2-difluoroacetamido)-2,4-difluorophenyl)-3-fluorobenzamide]: the pest or weed control at 50 µg/cm2 in experiment [1] (setting [7]) and in experiment [2] (setting [8]) was 50 to 100% each time.

With `O=C(NCC(F)(F)F)c1cc(NC(=O)[C@H]2[C@H](c3ccc(F)c(C(F)(F)F)c3)C2(Cl)Cl)c(F)cc1Cl` [F2084, 2-Chloro-5-((1R,3R)-2,2-dichloro-3-(4-fluoro-3-(trifluoromethyl)phenyl)cyclopropane-1-carboxamido)-4-fluoro-N-(2,2,2-trifluoroethyl)benzamide], the pest or weed control at 50 µg/cm2 in experiment [1] (setting [5]) and in experiment [2] (setting [6]) was 50 to 100% each time.

With `Nc1cc(F)c(NC(=O)c2cc(NC(=O)[C@H]3[C@H](c4cc(Cl)c(Cl)c(Cl)c4)C3(Cl)Cl)ccc2Cl)c(F)c1` [F1029, N-(4-Amino-2,6-difluorophenyl)-2-chloro-5-((1R,3R)-2,2-dichloro-3-(3,4,5-trichlorophenyl)cyclopropane-1-carboxamido)benzamide], the pest or weed control at 50 µg/cm2 in experiment [1] (setting [3]) and in experiment [2] (setting [4]) was 50 to 100% throughout.

Take `CC(C)CC(=O)Nc1c(F)ccc(NC(=O)c2cc(NC(=O)[C@H]3[C@H](c4ccc(F)c(C(F)(F)F)c4)C3(Cl)Cl)ccc2Cl)c1F` [F1845, 2-Chloro-5-((1R,3R)-2,2-dichloro-3-(4-fluoro-3-(trifluoromethyl)phenyl)cyclopropane-1-carboxamido)-N-(2,4-difluoro-3-(3-methylbutanamido)phenyl)benzamide]: the pest or weed control at 50 µg/cm2 in experiment [1] (setting [5]) and in experiment [2] (setting [6]) was 50 to 100% each time.

Regarding `O=C(Nc1ccc(F)c(NC(=O)C(F)(F)F)c1F)c1cc(NC(=O)[C@H]2[C@H](c3cc(Cl)c(F)c(Cl)c3)C2(Cl)Cl)ccc1Cl` (relative stereo) [F1332, trans-2-Chloro-5-(2,2-dichloro-3-(3,5-dichloro-4-fluorophenyl)cyclopropane-1-carboxamido)-N-(2,4-difluoro-3-(2,2,2-trifluoroacetamido)phenyl)benzamide], the pest or weed control at 50 µg/cm2 in experiment [1] (setting [3]) and in experiment [2] (setting [4]) was 50 to 100% each time.

With `O=C(Nc1c(F)ccc(NC(=O)c2cc(NC(=O)[C@H]3[C@H](c4ccc(F)c(C(F)(F)F)c4)C3(Cl)Cl)ccc2Cl)c1F)c1cccnc1` [F1206, N-(3-(2-Chloro-5-((1R,3R)-2,2-dichloro-3-(4-fluoro-3-(trifluoromethyl)phenyl)cyclopropane-1-carboxamido)benzamido)-2,6-difluorophenyl)nicotinamide], the pest or weed control at 50 µg/cm2 in experiment [1] (setting [3]) and in experiment [2] (setting [4]) was 50 to 100% in each case.

In the case of `Nc1c(F)ccc(NC(=O)c2cc(NC(=O)[C@H]3[C@H](c4ccc(F)c(C(F)(F)F)c4)C3(Cl)Cl)cc(F)c2Cl)c1F` [F1285, N-(3-Amino-2,4-difluorophenyl)-2-chloro-5-((1R,3R)-2,2-dichloro-3-(4-fluoro-3-(trifluoromethyl)phenyl)cyclopropane-1-carboxamido)-3-fluorobenzamide], the pest or weed control at 50 µg/cm2 in experiment [1] (setting [3]) and in experiment [2] (setting [4]) was 50 to 100% throughout.

As to `CC(C)(C)C(=O)Nc1c(F)ccc(NC(=O)c2cc(NC(=O)[C@H]3[C@H](c4ccc(F)c(C(F)(F)F)c4)C3(Cl)Cl)ccc2Cl)c1F` [F1274, 2-Chloro-5-((1R,3R)-2,2-dichloro-3-(4-fluoro-3-(trifluoromethyl)phenyl)cyclopropane-1-carboxamido)-N-(2,4-difluoro-3-pivalamidophenyl)benzamide], the pest or weed control at 50 µg/cm2 in experiment [1] (setting [3]) and in experiment [2] (setting [4]) was 50 to 100% in each case.

Take `CN(NC(=O)c1cc(NC(=O)[C@H]2[C@H](c3cc(Cl)cc(Cl)c3)C2(Cl)Cl)ccc1Cl)C(=O)C(F)(F)F` (relative stereo) [F2523, trans-2,2-Dichloro-N-(4-chloro-3-(2-methyl-2-(2,2,2-trifluoroacetyl)hydrazine-1-carbonyl)phenyl)-3-(3,5-dichlorophenyl)cyclopropane-1-carboxamide]: the pest or weed control at 50 µg/cm2 in experiment [1] (setting [5]) and in experiment [2] (setting [6]) was 50 to 100% in each case.

With `Nc1c(F)ccc(NC(=O)c2c(Cl)ccc(NC(=O)[C@H]3[C@H](c4ccc(F)c(Cl)c4)C3(Cl)Cl)c2Cl)c1F` (relative stereo) [F1110, trans-N-(3-Amino-2,4-difluorophenyl)-2,6-dichloro-3-(2,2-dichloro-3-(3-chloro-4-fluorophenyl)cyclopropane-1-carboxamido)benzamide], the pest or weed control at 50 µg/cm2 in experiment [1] (setting [3]) and in experiment [2] (setting [4]) was 50 to 100% each time.

These data come from patent publication US20250228239A1, “MOLECULES HAVING PESTICIDAL UTILITY, AND INTERMEDIATES, COMPOSITIONS, AND PROCESSES, RELATED THERETO” (priority 2024, published 2025).
